Experimental data published in patent US20250304609A1, “POLYMORPHIC FORM OF CHALCONE GLYCOSIDE COMPOUND, AND PREPARATION METHOD AND APPLICATION THEREOF” (ZHEJIANG YONGNING PHARMACEUTICAL CO., LTD., priority 2022, published 2025).
Where “and” joins values, the source holds several entries; their conditions need not be identical. Equal values may be shown once.

What was measured:
[1] = test system: cerebral ischemia-reperfusion rat models; assay: Cerebral ischemia-reperfusion (MCAO) rat model, different doses of YN17; type: in vivo, rats; settings: for Percentage of whole brain tissue infarction (%): 24 h, TTC staining, model 17.61 ± 7.45; for Percentage of whole brain tissue infarction (%) / Symptom score: Mean ± SD; for Symptom score: 24 h after administration, 0-5 points, model 3.3 ± 0.7; for content of GSH-px in serum / content of SOD in serum: 24 h after modeling, p<0.001
Protocol: Establishment of cerebral ischemia-reperfusion rat models. Rats were anesthetized with pentobarbital sodium (45 mg/kg), the neck skin was prepared, the surgical skin was disinfected with iodophor, the neck skin was cut in the middle, the neck muscles were separated, and the left common carotid artery (CCA) was separated until the branches of the internal carotid artery (ICA) and external carotid artery (ECA) were exposed. The proximal end of the common carotid artery was ligated, the distal end of the common carotid artery was clamped with an artery clip, an incision was made between the two ligated ends of the common carotid artery, the MCAO suture was inserted, and the suture was loosely ligated to the common carotid artery. The MCAO suture was inserted into the internal carotid artery, so that the suture reached the branches of the internal carotid artery to the middle cerebral artery (MCA), blocking the blood supply of the MCA and causing ischemia, the MCAO suture was fixed, and the surgical incision was sutured. After 1 h of ischemia, the MCAO suture was withdrawn into the common carotid artery to restore blood supply to the middle cerebral artery.
Drug administration. After the surgery, the rats were immediately injected with YN17 (5 mg/kg, 10 mg/kg and 20 mg/kg) via the tail vein, while the positive control group was injected with 3 mg/kg of edaravone via the tail vein. The rats were euthanized under anesthesia 24 hours after drug administration.
Animal neurobehavioral assessment. 24 hours after administration, the activity of the rats after landing was observed, and the behavior disorders of the rats were scored. The scoring method was as follows: • 0 points: no loss of neurological function and normal activity; • 1 point: failure to fully extend the left forepaw on the opposite side of the lesion; • 2 points: failure of the paralyzed side to resist the thrust from the opposite side; • 3 points: circling to the left side when crawling (tail-chasing sign); • 4 points: falling to the paralyzed side when shaking or walking; and • 5 points: trance or loss of consciousness.
Determination of the extent of cerebral infarction. The rats were euthanized under anesthesia 24 hours after drug administration. The brain was removed and rinsed with normal saline at 4° C. The brain was frozen at −80° C. for 10 min, and coronal slices with a thickness of 2 mm were cut from posterior to anterior, incubated in a 1% TTC solution for 10 min at 37° C., and fixed with formalin overnight after staining. The photos of the brain slices were taken and saved. The area of each brain slice and the area of the infarcted area were measured by Image Pro software, and the percentage of the area of focuses of infarct to the total area was calculated.

H9c2 cardiomyocytes [2] = assay: Flow cytometry (Annexin V-FITC) for cell apoptosis detection (OGD/R); type: cell-based; settings: OGD/R + 80 μg/ml, 24 h pretreatment; control 7.9%, model 20.3%
Protocol: (§1) Establishment of cellular oxygen-glucose deprivation/reperfusion (OGD/R) models. […] ischemia was simulated by incubation in a three-gas incubator (95% N2, 5% CO2) using sugar-free culture medium for 8-h culture, followed by transfer to a normal CO2 incubator for 12-h culture to simulate reperfusion.
Hoechst 33342 staining method for cell apoptosis detection. H9c2 cardiomyocytes were inoculated into a 6-well plate at a density of 2×10^5 cells/well. When the cells were completely adhered to the wall and grew to an appropriate degree of confluence, the cells were divided into a control group, a YN17 80 μg/ml group, a model group, and an OGD/R+80 μg/ml group. In the blank group, 2 mL of a fresh culture medium was added to each well and cultured in a CO2 incubator. The same amount of sugar-free DMEM was added to each well in the model group. […] After the treatment of each group, staining was performed according to the instructions of the Hoechst 33342 staining solution, and the nucleus morphology and fluorescence intensity of each group were observed under a fluorescence microscope.
Flow cytometry for cell apoptosis detection. […] After the treatment of each group, staining was performed according to the instructions of the Annexin V-FITC cell apoptosis detection kit, and cell apoptosis was detected by a flow cytometer.

[3] = Stability tests (accelerated and long-term) of salt and crystal forms; type: physicochemical; settings: for Relevant substance, Single impurity / Relevant substance, Total impurities / Content determination: HPLC; for Content determination: content of C27H32O16; for Calcium element: ICP-MS; for pH: solution 5 mg per 1 ml in water
Protocol: The crystal form A for the stability data in the following table is prepared by the method of Example 1. The intermediate was adopted, water was used as a system, calcium carbonate was added for reaction, the solution was filtered and then allowed to stand for crystallization, and subjected to suction filtration, and the filter cake was washed with water and dried by suction, and dried under reduced pressure at 30° C. for 4-6 hours to obtain the crystal form A.
For stability tests and inspection methods, please see the attached stability solutions and quality standards.
[Character] Ocular estimate method: this sample was a yellow powder.
[Examination] PH value: this sample was taken and added with water to make a solution containing 5 mg per 1 ml. According to the pH value determination method (Chinese Pharmacopoeia 2020 Edition Fourth General Rule 0631), the pH value should be 5.0-7.0.
Relevant substances. Determination of relevant substances was performed according to high-performance liquid chromatography (Chinese Pharmacopoeia 2020 Edition Fourth General Rule 0512).
Test sample solution. An appropriate amount of this sample was taken, accurately weighed, dissolved by addition of a diluent, and diluted quantitatively to prepare a solution containing 1.0 mg per 1 ml. The solution was shaken well, filtered through a microporous filter membrane (0.45 μm), and the subsequent filtrate was taken.
Chromatographic conditions. Octadecylsilane bonded silica gel was used as a filler: […] potassium dihydrogen phosphate solution (1.36 g of potassium dihydrogen phosphate was taken into a 1000 mL measuring flask, dissolved by addition of water, and diluted to the scale) was used as a mobile phase A, methanol was used as a mobile phase B, and gradient elution was performed according to the following table; the detection wavelength was 375 nm; and the injection volume was 5 μl.
Limit If there were impurity peaks in the chromatogram of the test sample solution, the area of a single impurity peak shall not be greater than 0.005 times (0.5%) the total peak area, and the sum of the areas of each impurity peak shall not be greater than 0.015 times (1.5%) the total peak area. Chromatographic peaks less than 0.02% of the peak area of the main component can be ignored.
Water content This sample was taken, and according to the method for water content determination (Chinese Pharmacopoeia 2020 Edition Fourth General Rule 0832 First Method), the water content shall not exceed 15.0%.
Calcium element Determination of calcium element was performed according to inductively coupled plasma mass spectrometry (Chinese Pharmacopoeia 2020 Edition Fourth General Rule 0412).
[Content determination] Content determination was performed according to high-performance liquid chromatography (Chinese Pharmacopoeia 2020 Edition Fourth General Rule 0512).
Chromatographic conditions. Octadecylsilane bonded silica gel was used as a filler, methanol-acetonitrile-water-phosphoric acid (26:2:72:0.04) was used as a mobile phase, and detection wavelength was 403 nm; and the injection volume was 10 μl.
Determination method. The test sample solution and comparative sample solution were accurately measured, and injected into the liquid chromatograph separately, and the chromatogram was recorded. The content of C27H32O16 in the test sample was calculated by the peak area according to the external standard method.

[4] = test system: cerebral ischemia-reperfusion in rats; assay: Cerebral ischemia-reperfusion rat model, comparative test of calcium salt YN17 and sodium salt YN17-ST; type: in vivo; settings: 10 mg/kg tail vein after 1 h ischemia; 24 h; Mean ± SEM; model 51.37 ± 2.66
Protocol: Establishment of cerebral ischemia-reperfusion rat models. Rats were anesthetized with pentobarbital sodium (45 mg/kg), the neck skin was prepared, the surgical skin was disinfected with iodophor, the neck skin was cut in the middle, the neck muscles were separated, and the left common carotid artery (CCA) was separated until the branches of the internal carotid artery (ICA) and external carotid artery (ECA) were exposed. […]
Determination of the extent of cerebral infarction. […] The area of each brain slice and the area of the infarcted area were measured by Image Pro software, and the percentage of the area of focuses of infarct to the total area was calculated.
The models were established and administered according to the similar method described above (YN17 (10 mg/kg) and YN17-ST (10 mg/kg) were injected into the tail vein immediately after blood supply to the middle cerebral artery of the rats was restored, and 5% glucose was injected into the tail vein in the model group. The rats were euthanized under anesthesia 24 hours after drug administration, and the extent of cerebral infarction was measured. The results were as follows: […]

H9c2 cells = assay: Survival rate of H9c2 cells after oxygen-glucose deprivation/reperfusion (OGD/R); type: cell-based; settings: 20, 40 and 80 μg/ml
Protocol: as §1

H9c2 cardiomyocytes [5] = assay: Hoechst 33342 staining method for cell apoptosis detection (OGD/R); type: cell-based
Protocol: as §1
Hoechst 33342 staining method for cell apoptosis detection. H9c2 cardiomyocytes were inoculated into a 6-well plate at a density of 2×10^5 cells/well. When the cells were completely adhered to the wall and grew to an appropriate degree of confluence, the cells were divided into a control group, a YN17 80 μg/ml group, a model group, and an OGD/R+80 μg/ml group. In the blank group, 2 mL of a fresh culture medium was added to each well and cultured in a CO2 incubator. The same amount of sugar-free DMEM was added to each well in the model group. After culture in a three-gas incubator for 8 h, the sugar-free DMEM was replaced with a fresh culture medium and transferred to a CO2 incubator for additional 12-h culture. The administration group was pretreated with different concentrations of YN17 for 24 h before OGD/R modeling. […] After the treatment of each group, staining was performed according to the instructions of the Hoechst 33342 staining solution, and the nucleus morphology and fluorescence intensity of each group were observed under a fluorescence microscope.

[6] = 3 mg/kg tail vein, listed as edaravone
[7] = Accelerated 6 months, 40° C. ± 2° C./75% ± 5% RH
[8] = Long-term 6 months, 25° C. ± 2° C./60% ± 5% RH

SMILES | Character ([3]; 0 months) | Water content ([3]; 0 months) | Relevant substance, Single impurity ([3]; 0 months) | Relevant substance, Total impurities ([3]; 0 months) | Content determination ([3]; 0 months) | pH ([3]; 0 months) | Character [3, 7] | Water content [3, 7] | Relevant substance, Single impurity [3, 7] | Relevant substance, Total impurities [3, 7] | Content determination [3, 7] | pH [3, 7] | Character [3, 8] | Water content [3, 8] | Relevant substance, Single impurity [3, 8] | Relevant substance, Total impurities [3, 8] | Content determination [3, 8] | pH [3, 8] | Percentage of hemispheric tissue infarction (%) [4] | also measured
CC1=NN(c2ccccc2)C(=O)C1 [Edaravone, edaravone] | – | – | – | – | – | – | – | – | – | – | – | – | – | – | – | – | – | – | – | Percentage of whole brain tissue infarction (%) ([1]; 3 mg/kg tail vein): 10.58 ± 5.31 %; Percentage of whole brain tissue infarction (%) [1, 6]: significantly inhibit; Symptom score ([1]; 3 mg/kg tail vein): 2.1 ± 1.3; Symptom score [1, 6]: significantly improve; content of GSH-px in serum ([1]; 3 mg/kg): significantly increase; content of SOD in serum ([1]; 3 mg/kg): significantly increase
O=C(/C=C/c1ccc(O)cc1)C1=C(O)C([C@@H]2O[C@H](CO)[C@@H](O)[C@H](O)[C@H]2O)=C([O-])[C@@](O)([C@@H]2O[C@H](CO)[C@@H](O)[C@H](O)[C@H]2O)C1=O.[Ca+2].[OH-] [YN17, (S)-3,6-dihydroxy-4-((E)-3-(4-hydroxyphenyl)acryloyl)-5-oxo-6-((2R,3R,4S,5S,6R)-3,4,5-trihydroxy-6-(hydroxymethyl)tetrahydro-2H-pyran-2-yl)-2-((2S,3R,4R,5S,6R)-3,4,5-trihydroxy-6-(hydroxymethyl)tetrahydro-2H-pyran-2-yl)cyclohexyl-1,3-diene-1-hydroxycalcium] | Yellow | 9.9% | 0.25% | 0.25% | 97.0% | 5.9 | Yellow | 10.1% | 0.25% | 0.54% | 96.5% | 5.8 | Yellow | 10.7% | 0.25% | 0.32% | 96.7% | 5.9 | 20.47% and 20.47 ± 3.56 % | apoptosis rate (H9c2 cardiomyocytes [2]): 13.3%; Calcium element ([3]; 0 months): 3.19%; Calcium element [3, 7]: 3.26%; Calcium element [3, 8]: 3.21%; Stability (comparison of salt forms, relevant substances and contents) ([3]; summary of Table 1 and Table 2): very stable; Symptom score ([1]; 5 mg/kg tail vein): 2.8 ± 1.0; content of GSH-px in serum ([1]; 5 mg/kg, 10 mg/kg and 20 mg/kg): significantly increase; content of SOD in serum ([1]; 10 mg/kg and 20 mg/kg): significantly increase; survival rate of cells (H9c2 cells): can improve the survival rate of cells in different degrees; apoptosis characteristics of nuclei without OGD/R (H9c2 cardiomyocytes [5]; 80 μg/ml group without OGD/R): no obvious apoptosis characteristics; number of densely and heavily stained cell nuclei (apoptosis) (H9c2 cardiomyocytes [5]; OGD/R + 80 μg/ml, 24 h pretreatment): significantly reduced
O=C(C=Cc1ccc(O)cc1)C1=C(O)C(C2OC(CO)C(O)C(O)C2O)=C([O-])C(O)(C2OC(CO)C(O)C(O)C2O)C1=O.[Na+] (stereo not shown) [YN17-ST] | Yellow | 2.3% | 0.36% | 0.95% | 95.3% | 6.0 | Yellow | 7.3% | 6.41% | 9.53% | 81.5% | 6.8 | Yellow | 5.7% | 1.86% | 3.02% | 91.7% | 6.4 | 23.35% and 23.35 ± 7.37 % | –
